Common to all, as to format: cell-based
Assay [1] has as its system human leukemia HL-60 cells. Nature of the assay: CCK8 growth inhibition, HL60. The conditions noted are these: Homo sapiens, HL-60, CCK8 method; read-out: IC50 of inhibitory activity on tumor cell growth, HL60. On the technique in general: Formazan colour is commonly taken as a measure of viable cells.
For assay [2], the system named is Murine breast cancer 4T1 cells. The experiment in a line: CCK8 growth inhibition, 4T1. The settings on record: Mus musculus, CCK8 method, 24 hrs (or 36, 72 hrs), read-out: IC50 of inhibitory activity on tumor cell growth, 4T1. The method, then: Murine breast cancer 4T1 cells (Kailian Biotech, KG338) in a logarithmic growth phase were selected and washed with PBS, digested with 0.25% trypsin (including EDTA), stopped digestion with a DMEM complete medium, then centrifuged, and resuspended to form a suspension of 4T1 single cells. Cells were counted using a hemocytometer and a cell concentration was calculated. A DMEM complete medium was used to adjust the cell suspension to a target concentration, and thereafter, the cells were plated on a 96-well cell culture plate according to 4×10^3/100 μL per well. After adherering to the wall, the 4T1 cells were stimulated according to the designed concentration gradients of the series of GY compounds or drugs, with each concentration being provided with 3 replicate holes. The 96-well cell culture plate with 4T1 cells seeded and dosing was placed in the cell incubator, and incubated at 37° C., 5% carbon dioxide for 24 hrs (or 36, 72 hrs). After the incubation time was over, 10 μL of CCK8 reagent was added to each well and incubated for 1-2 hrs at 37° C. A full-wavelength microplate reader was adopted to test an OD value at 450 nm wavelength.
CCK8 calculation formula is as follows: • Cell survival rate (100%)=[…]/(Ac−Ab)×100% • As: Absorbance of wells containing cells, CCK8 solution, and drug solution • Ac: Absorbance of wells containing cells and CCK8 solution, and no drug solution • Ab: Absorbance of wells containing CCK8 solution, no cells, and no drug solution
Cell growth inhibition rate (%)=1−((OD value of experimental group−OD value of blank group)/(OD value of control group−OD value of blank group)×100%).

In a further assay the test system is A549. The experiment in a line: CCK8 growth inhibition, A549. The settings on record: Homo sapiens, CCK8 method, read-out: IC50 of inhibitory activity on tumor cell growth, A549.
For the next assay, the system named is MB231. Nature of the assay: CCK8 growth inhibition, MB231. The conditions noted are these: CCK8 method; read-out: IC50 of inhibitory activity on tumor cell growth, MB231.
The next assay has as its target T1, TLR7 (Homo sapiens, UniProt Q9NYK1).
T1 construct: host or cells: HEK-Blue hTLR7 cells (HEK293-derived SEAP reporter line)
T1 sequence (Q9NYK1 27-1049): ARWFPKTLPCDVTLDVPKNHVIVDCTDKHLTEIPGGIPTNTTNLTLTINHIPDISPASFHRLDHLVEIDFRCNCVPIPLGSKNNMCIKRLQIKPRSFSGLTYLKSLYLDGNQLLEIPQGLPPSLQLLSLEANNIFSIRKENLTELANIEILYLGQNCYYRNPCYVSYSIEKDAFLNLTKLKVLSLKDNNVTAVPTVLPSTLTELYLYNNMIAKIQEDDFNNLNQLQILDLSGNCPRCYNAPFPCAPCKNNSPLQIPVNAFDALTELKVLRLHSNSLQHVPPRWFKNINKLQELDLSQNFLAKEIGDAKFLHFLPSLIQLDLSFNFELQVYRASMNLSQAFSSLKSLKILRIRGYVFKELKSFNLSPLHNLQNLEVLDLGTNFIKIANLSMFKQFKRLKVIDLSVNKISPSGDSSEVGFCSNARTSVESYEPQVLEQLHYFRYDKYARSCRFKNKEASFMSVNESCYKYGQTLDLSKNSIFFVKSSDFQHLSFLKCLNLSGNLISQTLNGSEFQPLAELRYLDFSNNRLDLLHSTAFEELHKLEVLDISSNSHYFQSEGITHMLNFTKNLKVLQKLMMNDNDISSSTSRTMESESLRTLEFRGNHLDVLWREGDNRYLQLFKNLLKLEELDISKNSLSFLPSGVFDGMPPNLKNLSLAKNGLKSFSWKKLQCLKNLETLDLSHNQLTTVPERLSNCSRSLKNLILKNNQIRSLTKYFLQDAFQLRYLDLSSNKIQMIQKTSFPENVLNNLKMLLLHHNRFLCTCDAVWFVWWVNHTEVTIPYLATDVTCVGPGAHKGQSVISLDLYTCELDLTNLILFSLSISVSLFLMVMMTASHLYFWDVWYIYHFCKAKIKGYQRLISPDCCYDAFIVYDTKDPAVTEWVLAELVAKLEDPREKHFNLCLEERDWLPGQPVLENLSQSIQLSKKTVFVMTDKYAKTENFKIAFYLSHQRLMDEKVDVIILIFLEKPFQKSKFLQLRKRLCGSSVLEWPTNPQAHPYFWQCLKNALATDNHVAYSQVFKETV
The experiment in a line: Detection of TLR7 activation (HEK-Blue Detection), SEAP reporter. The settings on record: HEK-Blue hTLR7 cells, 6-16 hrs, absorbance 650 nm; read-out: TLR7(EC50/μM). The method, then: HEK-Blue™hTLR7 cells (purchased from InvivoGen) in a logarithmic growth phase were taken, with a growth medium (Gibco, C11995500BT, Invivo Gen, ant-nr) discarded. The cells were gently rinsed twice by an appropriate amount of 37° C. PBS (Hyclone, SH30256.01), a rinsed PBS was discarded. Thereafter, the cells were added with 2-5 mL of 37° C. PBS, incubated for 1 to 2 minutes, and then scraped by a cell scraper and gently pipetted to be dispersed into a single cell suspension. A hemocytometer was adopted to count the cells and a cell concentration was calculated. After that, a HEK-Blue™ Detection solution (purchased from Invivo Gen) was adopted to adjust the cell concentration of the cell suspension to 2.5×10^4/180 μL per well for cell plating on a 96-well cell culture plate. The HEK-Blue™hTLR7 cells were stimulated according to the designed series of GY compound or drug concentrations (0.01 μM, 0.1 μM, 1 μM, 5 μM, 15 μM, and 30 μM), with 3 replicate wells for each concentration, and were incubated at 37° C., 5% carbon dioxide for 6-16 hrs. After the incubation, the absorbance value was read at 650 nm with a full-wavelength microplate reader (BioTek-Epoch), as listed in Table 2.
Relative induction=(average OD value of experimental group−average OD value of negative control group)/average OD value of negative control group.
Specific details for the above method may be referred to https: • //www.invivogen.com/hek-blue-htlr7; https://www.invivogen.com/sites/default/files/invivogen/products/files/hek_blue_htlr7_tds.pdf.

Assay [3] deals with human leukemia K562 cells. Nature of the assay: CCK8 growth inhibition, K562. The settings on record: CCK8 method, read-out: IC50 of inhibitory activity on tumor cell growth, K562.
Assay [4] concerns murine colon cancer CT-26 cells. The experiment in a line: CCK8 growth inhibition, CT26. The conditions noted are these: Mus musculus, CCK8 method, read-out: IC50 of inhibitory activity on tumor cell growth, CT26.
Assay [5] deals with human lymphoma Daudi B cells. Nature of the assay: CCK8 growth inhibition, Daudi B. The settings on record: Homo sapiens, Daudi, CCK8 method; read-out: IC50 of inhibitory activity on tumor cell growth, Daudi B.
Assay [6] has as its system human lymphoma Raji cells. Nature of the assay: CCK8 growth inhibition, Raji. The settings on record: Homo sapiens, Raji, CCK8 method; read-out: IC50 of inhibitory activity on tumor cell growth, Raji.
For assay [7], the system named is murine leukemia WEHI-3 cells. The experiment in a line: CCK8 growth inhibition, WEHI-3. The conditions noted are these: Mus musculus, CCK8 method, read-out: IC50 of inhibitory activity on tumor cell growth, WEHI-3.
A further assay has as its system HEK293T cells. Nature of the assay: CCK8 growth inhibition, HEK-293T. The settings on record: Homo sapiens, CCK8 method, read-out: IC50 of inhibitory activity on cell growth, HEK-293T.
Another assay relates to black melanoma B16 cells. Nature of the assay: CCK8 growth inhibition, B16. The settings on record: Mus musculus, CCK8 method, read-out: IC50 of inhibitory activity on tumor cell growth, B16.

Consider `CCCCOc1nc(N)c2nc(O)n(Cc3cn(CCOCCOCCOCCN4CCN(CCCNC(=O)CC5N=C(c6ccc(Cl)cc6)c6c(sc(C)c6C)-n6c(C)nnc65)CC4)nn3)c2n1` (centres unmarked) [GY118], for which the half-maximal inhibitory concentration (IC50) in assay [1] is 15.1 µM; in assay [2], 14.7 µM; in the assay with A549, 16.6 µM; in the assay with MB231 it was 5.8 µM.
Turning to `C=C(CC(=O)NCCOCCOCCOCCn1cc(Cn2c(O)nc3c(N)nc(OCCCC)nc32)nn1)C(=O)N1CCC[C@@H](n2nc(-c3ccc(Oc4ccccc4)cc3)c3c(N)ncnc32)C1` [GY131], the EC50 at TLR7 was determined as 4.97 µM. In addition, the IC50 in assay [3] is 92.1 µM; in assay [1], 92.1 µM; in [2] it was 2.86 µM; in assay [4], 166 µM; in [5] it was 14.1 µM; in [6], 10.4 µM. The half-inhibitory concentration (IC50) in [7] worked out at 7.38 µM; in the assay with HEK293T cells it was 25.1 µM; in the assay with black melanoma B16 cells, 40.7 µM.

The IC50 is the concentration needed to halve the response being measured.

(Values after patent publication US12440571B2, “Immune agonists” (SHENZHEN UNIVERSITY, priority 2020, dated 2025).)
